Assay results as given in patent publication US12714721B2, “Methods of treatment of a cytokine storm” (Loma Linda University Health, priority 2020, dated 2026).
“Also recorded” adds a separate entry of the source.

Key:
Assay type in all cases: in vivo, mouse
LPS-induced AKI mice = test: Survival test with a lethal dose of LPS (25 mg/kg body weight); conditions: LPS 25 mg/kg i.p.; for overall survival rate: end of the experiment (144 h) (FIG. 1D); for mortality: pretreatment (FIG. 1D)
Method: Different components of the treatment regimen were tested, individually and in combination, for their effect on prolonging survival or affecting mortality. A survival test was performed with a lethal dose of LPS (25 mg/kg body weight). As LPS causes AKI, a mouse model was utilized where AKI was induced by parenteral injection of LPS. Animals were treated with IGF-1 and Vitamin C, individually and in combination to evaluate their effect on survival (FIG. 1C). Kaplan Meier survival analysis was conducted between LPS induced systemic-sepsis animals treated with or without IGF-1, Vitamin C or combination therapy measured over the 96 hour-study period. […] No mortality was observed among healthy mice.
Different components of the treatment regimen were tested, individually and in combination, for their effect on prolonging survival or affecting mortality. A survival test was performed with a lethal dose of LPS (25 mg/kg body weight). Animals were treated with all components individually and in combination to evaluate their effect on survival. As LPS causes AKI, a mouse model was utilized where AKI was induced by parenteral injection of LPS. Pretreatment with IGF-1 monotherapy, BTP-2 monotherapy, and IGF-1+BTP-2 combination therapy was evaluated for effect in the mouse model to prevent the animals from succumbing to death due to organ failure in AKI. Mice (7 per groups) were i.p. injected with a lethal dose of LPS (25 mg/kg body weight). A group of mice received an i.p. injection of BTP-2 (16 mg/kg) one hour before LPS injection, and another group of mice received i.m. injection of Lenti-IGF1, 24 hours before LPS injection. A separate group of mice received a combination of IGF-1+BTP-2 as pretreatment. Mice were monitored every 6 hours. […] The mortality of LPS-injected mice that received an IGF-1 (labeled as LPS+IGF-1) pretreatment was 60% within 36 hours, and 88% at the end of the experiment (144 h). Mortality in LPS-injected mice that received BTP-2 (labeled as LPS+BTP-2) pretreatment was 0% within 36 hours, 30% within 48 hours and 72% at 144 hour-time point. However, the mortality in LPS-injected mice that received an IGF-1 and BTP-2 (labeled as LPS+IGF-1+BTP-2) pretreatment was comparatively low, which reached only 15% within 48 hours, and at the end of the 144 hour-time point reached only up to 43% (compared to LPS-No Tx). […] Meanwhile, no mortality was observed among mice treated with PBS, i.e., healthy group.
(§1) Experimental Design for IGF-1 and BTP-2 studies—The animal experiments involved B6 mice between 5-8 weeks of age. Most experiments involved five groups of animals: (1) healthy, (2) LPS untreated (LPS-No Tx), (3) IGF-I in vivo gene therapy one day before LPS injection (LPS+IGF-1), (4) BTP-2 16 mg/kg i.p. at the start of the study and the (5) combined therapy with IGF-I and BTP-2 (LPS-IGF-1+BTP-2). For the survival experiment, a lethal dose of LPS (25 mg/kg) was used and all of the untreated animals died by 72 hours. In the other experiments, a sublethal dose of LPS (20 mg/kg) was used.
(§2) LPS induced sepsis and subsequent AKI—Female C57BL/6 mice received a sublethal or lethal dose of LPS from E. coli (0127: B8 strain, Sigma Aldrich, St. Louis, MO, USA) in a concentration of 20 or 25 mg/kg body weight administrated in sterile PBS by intraperitoneal injection.
(§3) Treatment—In a preventive therapeutic strategy, some of the mice received an intramuscular injection of Lenti-IGF-1 24 hours before LPS injection; whereas, the calcium signaling blocker BTP-2 (16 mg/kg, Cayman Chemical) was administrated 1 hour before LPS injection. Some of the animals received a combination of Lenti-IGF-1 and BTP-2. Control group mice were injected with an equal volume of PBS.

whole lung tissues = test: Measurements of mRNA expression in the lungs (RT-qPCR), acute lung injury induced by LPS; conditions: for CD31 gene expression: lungs (FIG. 12A); for VEGF gene expression: lungs (FIG. 12B); for α-SMA gene expression: lungs (FIG. 12C); for TRPC3 gene expression: day 7 (FIG. 10B); for TRPC6 gene expression: day 7 (FIG. 10C); for Orai1 gene expression: day 7 (FIG. 10D); for NGAL expression: day 7 (FIG. 15A); for SP-D expression: day 7 (FIG. 15B); for caspase 3 expression: day 7 (FIG. 15C); for proinflammatory cytokines gene expression (IL-1, IL-6, IL-17, TNF-α, IFN-γ): day 7 (FIGS. 11A-11E); for TLR-4 gene expression: seven days after LPS (FIG. 10A)
Method: Acute Lung Injury Induced by LPS—Female C57BL/6 mice received a sublethal or lethal dose of LPS from Escherichia coli (0127: B8 strain, Sigma Aldrich, St. Louis, MO, USA). LPS in sterile PBS was administered intraperitoneally at 20- or 25-mg/kg body weight.
Treatment for Lung Studies-Lenti-IGF-I was administered intramuscularly 24 h before LPS injection. The TRP and ORAI calcium channel blocker BTP-2 (YM-58483 16 mg/kg, Cayman Chemical, Ann Arbor, MI, USA) was given IP 1 h before LPS injection. Some of the animals received a combination of lenti-IGF-I and BTP-2. Mice in control groups were injected with an equal volume of PBS.
Measurements of mRNA Expression in the Lungs—For the measurement of the mRNA expressions of the whole lung tissues, RT-qPCR was performed. Lung tissues were snap-frozen in liquid nitrogen. According to the manufacturer's instructions, total RNA was isolated using the RNeasy Micro Kit® (Qiagen, Valencia, CA, USA). First-strand cDNA was synthesized using the SuperScript® III Reverse Transcriptase (Life Technologies, Grand Island, NY, USA). Quantitative RT-qPCR was performed and analyzed in an Applied Biosystems 7900HT Real-Time PCR machine (Applied Biosystems, Foster City, CA). The PCR condition was 10 min at 95° C. followed by 40 cycles of 10 s at 95° C. and 15 s at 60° C. The relative amount of mRNA was calculated using the comparative Ct (DDCt) method. All specific amplicons were normalized against GAPDH. Table 2 (SEQ ID Nos:1-36) provides for a list of the primers.

whole kidney tissue = test: Measurements of mRNA expression in the kidney (real-time PCR), LPS-induced AKI; conditions: for Orai1 gene expression: 7 days after LPS 20 mg/kg (FIG. 2E); for NGAL gene expression: 7 days after LPS (FIG. 6C); for proinflammatory cytokines gene expression (IL-1b, IL-17, IL-6, TNF-α, IL-18): 7 days after LPS (FIGS. 3A-3E)
Method: as §1, §2, §3
Measurements of mRNA Expression in the Kidney—For the measurement of the mRNA expressions of whole kidney tissue, we performed real-time PCR. The relative amount of mRNA was calculated using the comparative Ct(ΔΔCt) method. All specific amplicons were normalized against GAPDH.

Molecule | overall survival rate (LPS-induced AKI mice) [%] | mortality (LPS-induced AKI mice; end of the experiment (144 h)) [%] | mortality (LPS-induced AKI mice; within 36 hours) [%] | CD31 gene expression (whole lung tissues) | VEGF gene expression (whole lung tissues) | α-SMA gene expression (whole lung tissues) | IFN-γ expression (whole lung tissues; lungs, day 7) | IL-17 expression (whole lung tissues; lungs, day 7) | TNF-α expression (whole lung tissues; lungs, day 7) | TRPC3 gene expression (whole lung tissues; lungs) | TRPC6 gene expression (whole lung tissues; lungs) | Orai1 gene expression (whole lung tissues; lungs) | NGAL expression (whole lung tissues; lungs) | SP-D expression (whole lung tissues; lungs) | caspase 3 expression (whole lung tissues; lungs) | proinflammatory cytokines gene expression (IL-1, IL-6, IL-17, TNF-α, IFN-γ) (whole lung tissues; lungs) | TLR-4 gene expression (whole lung tissues; lungs) | Orai1 gene expression (whole kidney tissue) | NGAL gene expression (whole kidney tissue) | proinflammatory cytokines gene expression (IL-1b, IL-17, IL-6, TNF-α, IL-18) (whole kidney tissue) | other results
Cc1nnsc1C(=O)Nc1ccc(-n2nc(C(F)(F)F)cc2C(F)(F)F)cc1 [BTP-2, 3,5-bis(trifluoromethyl)pyrazole derivative] | 28 | 72 | 0 | corrected | markedly increased the VEGF expression | completely corrected | decreased; also recorded: corrected | markedly decreased | marked decreases; also recorded: decreased | decreased; also recorded: normalized | decreased; also recorded: normalized | significant decrease; also recorded: normalized | significantly reduced the elevated NGAL expression almost to normal | normalized | corrected the elevated caspase 3 expression | decreased the gene expression most of the proinflammatory cytokines to normal; also recorded: remarkably suppressive | decreased the TLR-4 gene expression to the normal level | decreased Orai1 expression to normal; also recorded: marked decrease | improved | decreased | mortality (LPS-induced AKI mice; within 48 hours): 30%; calcineurin gene expression (whole lung tissues; lungs, day 7 (FIG. 10E)): decreased; also recorded: normalized; Nfat gene expression (whole lung tissues; lungs, day 7 (FIG. 10F)): decreased; also recorded: normalized; Nf-kB gene expression (whole kidney tissue; 7 days after LPS (FIG. 2C)): decreased; CD31 gene expression (whole kidney tissue; 7 days after LPS (FIG. 5C)): increased
IGF-I: Insulin-like Growth Factor, delivered by a lentiviral vector engineered to express IGF-I injected into skeletal muscle | 12.5 | 88 | 60 | corrected | did not affect the VEGF expression | did not indicate such beneficial effects | decreased; also recorded: corrected | markedly decreased | marked decreases; also recorded: decreased | decreased; also recorded: significant decrease | decreased; also recorded: significant decrease | decreased; also recorded: significant decrease | significantly reduced the elevated NGAL expression almost to normal | normalized | corrected the elevated caspase 3 expression | decreased the gene expression most of the proinflammatory cytokines to normal; also recorded: remarkably suppressive; also recorded: as effective as BTP-2 | decreased the TLR-4 gene expression to the normal level | decreased Orai1 expression | improved | decreased | IL-6 expression (whole lung tissues; lungs, day 7): markedly decrease
